Values of other authors, collected in US20040147490A1, “2-Amino-propanol derivatives” (priority 2001, published 2004).

Details: comparison substance

In the case of CCCCCCCCCCCCC/C=C/[C@@H](O)[C@@H](N)COP(=O)(O)O [sphingosine-1 phosphate], the negative chronotropic effects is listed as “negative chronotropic effects”.
